Measured values: paper PMC12756790, “Site-Selective Protein Modification via Peptide-Directed Proximity Catalysis” (ACS Omega, 2025)

Assays:
insulin [1] = molecular target: T1, insulin (Homo sapiens, UniProt P01308); experiment: peptide-directed proximity catalysis labeling of insulin, intact protein LC-MS; assay type: biochemical; details: control (scrambled peptide, peptide lacking PyOx, or PyOx-azide) with biotin-NASA 3b, pH 7.4, 2 h, 22 °C
Procedure: With these reagents in hand, we attempted peptide-directed proximity catalysis on insulin. Initial experiments were performed in pH 7.4 phosphate buffer at a concentration of 50 μM, which was above the K d calculated for peptide binding (Figure ). Varying equivalents of pyridinium oxime peptide P1-(PyOx) 1 (0, 1.25, 2.5, 5, or 10 equiv wrt protein) were then added, followed by the addition of biotin–NASA 3b (20 equiv wrt protein). […] After 2 h at room temperature (22 °C), reactions were analyzed by intact protein liquid chromatography mass spectrometry (LC-MS). […] Further controls using either a scrambled peptide (FYRTGF-(PyOx)1), peptide lacking the pyridinium oxime P1, or pyridinium oxime-azide 2 also gave no labeling, providing further evidence that labeling was mediated by a specific protein–peptide binding interaction, and catalyzed by the pyridinium oxime motif.
General protocol: A solution of PyOx-peptide probe ([…] in pH 7.4 PBS, 25 µL, 7.4 PBS, 25 µL, 1.25 nmol; Final concentration 25 µM ) and shaken for 30 min . A solution of biotin-NASA 3b (25 mM in DMSO, 1 µL, 25 nmol; Final concentration 490 µM) was then added and the mixture shaken at room temperature for 2 h. Samples were then analysed by LC-MS without purification.
Figure S5: Deconvoluted mass spectra from general labelling protocol showing modified and unmodified insulin. […]

RNase S = tested on: RNase S; design: method as in Kim and Raines, Protein Sci. 1993 (ref 26); details: S-peptide cleaved from N-terminal domain of RNase A; ref Kim and Raines, Protein Sci. 1993 (ref 26); cited from earlier work
insulin [2] = molecular target: T1, insulin; experiment: QCM-D binding of gold-tethered peptides to insulin; details: predicted from QCM-D of model peptides, 'noting the assumptions detailed above'
Description: To predict whether the insulin-binding capability of P1 would be maintained after the introduction of a pyridinium oxime catalyst, peptides bearing either an N- or C-terminal cysteine (C-P1 and P1-C, respectively) were first synthesized and tethered to a gold sensor for quartz crystal microbalance with dissipation monitoring (QCM-D) analysis. It is important to note that these model peptides lacked the positive charge that would be introduced upon installation of a pyridinium oxime, and so evidence of binding was expected to be indicative of binding potential, rather than providing an exact measure of binding affinity.
Sensor preparation: QCM-D gold sensors (QSX 301, Biolin Scientific) were cleaned by UV–ozone treatment (30 min), followed by sonication in a 2% Hellmanex III solution (5 min) and then sonication in ultrapure water (5 min). Sensors were then dried with N2 […]
Binding studies: Following cleaning, each sensor was installed into the flow modules of a Q-Sense E4, QFM 401 system by Biolin Scientific. Each chamber was then filled with Milli-Q water at a flow rate of 100 μL/min controlled by a four-channel peristaltic pump. To achieve a stable baseline, PBS was left to flow through the modules at 100 μL/min until the drift in frequency was <±1 Hz over 10 min. […]

T1 sequence (P01308 25-54 limits assumed): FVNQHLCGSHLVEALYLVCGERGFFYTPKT
T1 sequence (P01308 90-110 limits assumed): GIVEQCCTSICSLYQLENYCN

Substance | insulin labeling, controls (insulin [1]) | binding affinity to remaining parent protein RNase S (RNase S) | predicted affinity for target protein (insulin [2])
FYRTGF-(PyOx)1 [scrambled peptide control] | no labeling |  | 
KETAAAKFERQHMDSSTSA [P2] |  | nM binding affinty | 
RGFFYT [P1] | no labeling |  | μM affinity
